# Several values for one entry are separate records, joined by “and”; a condition that tells them apart may be missing. Equal entries are not always repeated.
# Legend:
# [1] = Log Pow (octanol/water partition coefficient) of direct dyes; conditions: octanol/water partition coefficient of the dye
# [2] = Color removal (ΔE) from HC blue 15 dyed, multiple-shampooed platinum bleached hair, with co-surfactants and cyclic compounds; conditions: 30 min 40° C.
# [3] = Controlled color removal of two-tone colored hair over one, three and six shampoo washes; conditions: 10% TBuMA Cl added to commercial shampoo containing about 9% SLES, up to six washes
# From the text: The swatches were then washed with either the shampoo alone (control) or shampoo with TBuMA Cl and evaluated after one, three and six washes. Without addition of TBuMA Cl, the indigo color shifts to green as the number of shampoos increased. This is because Basic Red 51, a cationic direct dye, is washed out faster from hair by washing with shampoo than the HC Blue 15.
# [4] = Color removal (ΔE) from hair swatches dyed with HC Blue 15, soaked 30 minutes at 40° C., shampooed once
# Method: Unless otherwise indicated, hair swatches were all treated using the same protocol. Specifically, 2 g dyed hair swatches were soaked in 80 g treatment solutions or samples in water for 30 minutes at 40° C., then the treated hair swatches were then shampooed once and blow-dried for evaluation.
# [5] = Color removal (ΔE) from hair swatches dyed with hydroxyanthraquinoneaminopropyl methyl morpholinium methosulfate, 23° C.; conditions: 6% SLES in water; 30 min 23° C.
Log Pow [1],Molecule,further results
1.19,Nc1ccc(O)cc1[N+](=O)[O-] [4-AMINO-3-NITROPHENOL],
1.2,Nc1c(N=Nc2ccc([N+](=O)[O-])cc2)c(S(=O)(=O)[O-])cc2cc(S(=O)(=O)[O-])c(N=Nc3ccccc3)c(O)c12.[Na+].[Na+] [ACID BLACK 1],
−0.32,CCN(Cc1cccc(S(=O)(=O)[O-])c1)c1ccc(C(=C2C=CC(=[N+](CC)Cc3cccc(S(=O)(=O)[O-])c3)C=C2)c2ccccc2S(=O)(=O)[O-])cc1.[Na+].[Na+] [ACID BLUE 9],
5.71,Cc1ccc(Nc2ccc(Nc3ccc(C)cc3S(=O)(=O)[O-])c3c2C(=O)c2ccccc2C3=O)c(S(=O)(=O)[O-])c1.[Na+].[Na+] [ACID GREEN 25],
1.4,O=S(=O)([O-])c1ccc(N=Nc2c(O)ccc3ccccc23)cc1.[Na+] [ACID ORANGE 7],
1.63,O=S(=O)(O)c1cc(S(=O)(=O)O)c2c(/N=N\c3ccc(S(=O)(=O)O)c4ccccc34)c(O)ccc2c1 [ACID RED18],
0.5,Nc1cc(S(=O)(=O)[O-])cc2cc(S(=O)(=O)[O-])c(N=Nc3ccccc3)c(O)c12.[Na+].[Na+] [ACID RED 33],
1.3,CCN(CC)c1ccc2c(-c3ccc(S(=O)(=O)[O-])cc3S(=O)(=O)[O-])c3ccc(=[N+](CC)CC)cc-3oc2c1.[Na+] [ACID RED 52],
3.1,Cc1ccc(Nc2ccc(O)c3c2C(=O)c2ccccc2C3=O)c(S(=O)(=O)[O-])c1.[Na+] [ACID VIOLET 43],
−10.17,O=C([O-])C1=NN(c2ccc(S(=O)(=O)[O-])cc2)C(=O)C1N=Nc1ccc(S(=O)(=O)[O-])cc1.[Na+].[Na+].[Na+] (stereo not drawn) [ACID YELLOW 23],
1.88,C[N+](C)(C)c1cccc(N=C2C=C(N)c3c(O)c(Br)cc(N)c3C2=O)c1.[Cl-] [BASIC BLUE 99],
−0.15,C[N+](C)(C)c1ccc2ccc(O)c(N=Nc3ccc(N)c([N+](=O)[O-])c3)c2c1.[Cl-] [BASIC BROWN 17],
−2.31,Cn1cc[n+](C)c1N=Nc1ccc(N)cc1.[Cl-] [BASIC ORANGE 31],
−1.97,CN(C)c1ccc(N=Nc2n(C)cc[n+]2C)cc1.[Cl-] [BASIC RED 51],Log Pow ([1]; listed as Basic Red 51): around −1.97
0.06,CC1=NN(c2ccccc2)C(=O)C1N=Nc1cccc([N+](C)(C)C)c1.[Cl-] (stereo not drawn) [BASIC YELLOW 57],
−1.69,CN(N=Cc1cc[n+](C)cc1)c1ccccc1 [BASIC YELLOW 87],

Log Pow [1],Molecule,further results
,"OCc1ccccc1 [Benzyl Alcohol, benzyl alcohol]","ΔE ([2]; 10% Benzyl Alcohol, hair pre-shampooed 6×): 9.4"
3,Nc1ccc(N)c2c1C(=O)c1ccccc1C2=O [DISPERSE VIOLET 1],
,"CCO [EtOH, ethanol]","ΔE ([2]; 16% EtOH, hair pre-shampooed 4×): 1.77; ΔE ([2]; 16% EtOH, hair pre-shampooed 6×): 1.8"
−0.32,O=[N+]([O-])c1cc(N(CCO)CCO)ccc1NCCO [HC BLUE NO. 2],
2.09,O=C1c2ccccc2C(=O)c2c(NCC(O)CO)ccc(NCC(O)CO)c21 (stereo not drawn) [HC BLUE NO. 14],
3.47,CC1=CC(=C(c2cc(C)c(N)c(C)c2)c2c(Cl)cccc2Cl)C=C(C)C1=N.O=P(O)(O)O [HC BLUE NO. 15],Log Pow ([1]; listed as HC Blue 15): around 3.47; Log Pow ([1]; listed as HC blue 15): around 3.47
0.13,NCCNc1ccc(OCCO)cc1[N+](=O)[O-] [HC ORANGE NO. 2],
−0.42,Nc1ccc(NCCO)c([N+](=O)[O-])c1 [HC RED NO.3],
0.67,Cc1cc(N)c([N+](=O)[O-])cc1NCCO [HC VIOLET NO 1],
0.608,O=[N+]([O-])c1cc(N(CCO)CCO)ccc1NCCCO [HC VIOLET NO 2],
1.3,COc1ccc([N+](=O)[O-])c(NCCN)c1.Cl [HC YELLOW NO.9],
2.59,Cc1cc(N(CCO)CCO)ccc1N=Nc1ccc(N)cc1 [HC YELLOW NO. 7],
,"CCCC[N+](C)(CCCC)CCCC.[Cl-] [TBuMA Cl, tributylmethyl ammonium chloride]","leaching of Basic Red 51 ([3]; versus shampoo alone): deterred or inhibited; removal of HC Blue 15 ([3]; versus shampoo alone): accelerated; indigo color tone during shampooing [3]: maintained; ΔE ([4]; 10 wt.% organic salt, 0 wt. % SLES, 30 min 40° C.): 1.8; ΔE ([2]; 10% TBuMA Cl, hair pre-shampooed 4×): 3.63"
−1.05,ACID YELLOW 3,
0.13,HC RED NO. 7,
,sodium laureth sulfate [SLES],"ΔE [5]: 18.2; ΔE ([4]; 0 wt.% organic salt, 3 wt. % SLES, 30 min 40° C.): 21.08 and 21.1; ΔE ([4]; 0 wt.% organic salt, 6 wt. % SLES, 30 min 40° C.): 21.81 and 21.4; ΔE ([4]; 0 wt.% organic salt, 12 wt. % SLES, 30 min 40° C.): 21.84; ΔE ([4]; SLES alone, over the concentrations tested (3-12 wt. %)): 21-22; ΔE ([2]; 6% SLES, hair pre-shampooed 4×): 19.3; ΔE ([2]; 6% SLES, hair pre-shampooed 6×): 15.01"

Molecule,Log Pow [1],further results
CNc1cc(OCC(O)CO)ccc1[N+](=O)[O-] (stereo not drawn) [2-NITRO-5-GLYCERYL METHYLANILINE],0.89,
O=[N+]([O-])c1cc(O)ccc1NCCO [3-NITRO-P-HYDROXYETHYLAMINOPHENOL],0.21,
O=C([O-])c1c(Cl)c(Cl)c(Cl)c(Cl)c1-c1c2cc(Br)c(=O)c(Br)c-2oc2c(Br)c([O-])c(Br)cc12.[Na+].[Na+] [ACID RED 92],3,
COS(=O)(=O)[O-].C[N+]1(CCCNc2ccc(O)c3c2C(=O)c2ccccc2C3=O)CCOCC1 [hydroxyanthraquinoneaminopropyl methyl morpholinium methosulfate],0.89,Log Pow ([1]; listed as hydroxyanthraquinoneaminopropyl methyl morpholinium methosulfate): around 0.89

# Source: patent publication US11173102B1, “Methods and compositions for removing color from color-treated hair” (L'Oreal, priority 2020, dated 2021)
